The values that follow come from patent US20160271209A1, “ANTIBACTERIAL COMPOSITION” (ECO FRIENDLY INSTITUTE LIMITED., priority 2012, published 2016).

Assay [1] has as its system Porphyromonas gingivalis W83 strain. The experiment in a line: Antibacterial activity against Porphyromonas gingivalis (2): growth inhibition effect by turbidity at 600 nm. In kind it is cell-based. As to conditions: FIG. 2, 48 hours culture. The protocol:
The Porphyromonas gingivalis W83 strain, a causative bacterium of periodontal disease, was cultured to the logarithmic phase in the brain heart infusion medium containing hemin (5 mg/L) and metidione (1 mg/L). The culture medium was diluted with a citrate buffer containing 0.8% NaCl to adjust the number of bacteria (10^6 CFU/mL). Test solutions were prepared by dilution with sterilized purified water so as to contain the 5-fold concentrate of Prunus mume extract (10 mg/mL, 50 mg/mL as the extract before concentration), nisin (20 μg/mL), or the 5-fold concentrate of Prunus mume extract (10 mg/mL, 50 mg/mL as the extract before concentration)+nisin ([…]), and serially diluted 2-fold on a 96-well plate. To each well (containing 50 μL of test solution), the brain heart infusion medium (140 μL) containing hemin (5 mg/L) and metidione (1 mg/L) and the cell suspension (10 μL) were added. After culture for 48 hours, turbidity of the culture was measured at 600 nm. For evaluation, growth inhibition effect (%) was calculated according to the equation: Growth inhibition effect (%)=(1−(Turbidity observed with test solution)/(Turbidity observed with sterilized water))×100.

The test system of assay [2] is Escherichia coli NBRC 3301 strain. The experiment in a line: Antibacterial activity against Escherichia coli (1): contact for days, colony count. The class given is cell-based. As to conditions: Table 2, nisin 10 μg/mL. Here is the method:
The Escherichia coli NBRC 3301 strain, which is a Gram-negative bacterium, was cultured to the logarithmic phase in Tryptic Soy Broth (TSB). The culture medium was diluted with sterilized purified water to adjust the number of bacteria (10^3 to 10^4 CFU/mL). Test solutions were prepared by dilution with sterilized purified water so as to contain nisin (10 μg/mL), the 5-fold concentrate of Prunus mume extract (3 mg/mL, 15 mg/mL as the extract before concentration), or nisin (10 μg/mL)+5-fold concentrate of Prunus mume extract (3 mg/mL, 15 mg/mL as the extract before concentration). The diluted culture medium (10 μL) was added to each test solution (1 mL). After contact of the bacterium with the test solution at room temperature for a predetermined number of days (0 to 7 days), the mixture (100 μL) was plated on TBS agar medium. The bacterium was cultured for 48 hours, and then the number of the colonies formed on the plate was counted. The results are shown in Tables 2 and 3 mentioned below and FIGS. 3 and 4. In Tables 2 and 3, “D+n” means the number of days (n days) for the contact of the diluted culture medium and the test solution (the same shall apply to the following descriptions).

Assay [3] concerns Gram-positive bacteria including acetic acid bacteria. As to conditions: background statement; cited from earlier work.
Assay [4] relates to Porphyromonas gingivalis ATCC 33277 strain. Nature of the assay: Antibacterial activity against Porphyromonas gingivalis (1): 1 minute contact, colony count. In kind it is cell-based. Here is the method: The Porphyromonas gingivalis ATCC 33277 strain, a causative bacterium of periodontal disease, was cultured to the logarithmic phase in Enriched Tryptic Soy Broth (e-TSB). The culture medium was diluted with a citrate buffer (pH 4.5) containing 0.8% NaCl to adjust the number of bacteria (10^6 CFU/mL). Test solutions were prepared by dilution with sterilized purified water so as to contain the 5-fold concentrate of Prunus mume extract (3 mg/mL, 15 mg/mL as the extract before concentration), nisin (150 μg/mL), or nisin (150 μg/mL)+5-fold concentrate of Prunus mume extract (3 mg/mL, 15 mg/mL as the extract before concentration). The diluted culture medium (100 μL) was added to each test solution (5 mL). After contact of the bacterium with the test solution for 1 minute at room temperature, the mixture (100 μL) was added to and mixed with the e-TSB medium (5 mL), and the mixture (100 μL) was immediately plated on a blood agar medium under an anaerobic condition. The bacterium was cultured for 5 days under an anaerobic condition, and then the number of the colonies formed on the plate was counted. The results were as shown in Table 1 mentioned below and FIG. 1. In Table 1, “CFU” means colony-forming unit (the same shall apply to the following descriptions).

For nisin A, the “growth inhibition effect (in words)” value in assay [1] (2-fold serial dilution, overall) is listed as “extremely low”; in assay [1] (at the 1/32 concentration (32-fold dilution)), “did not show any growth inhibition effect at all”. For the same substance, the “Number of bacteria, D + 0” value in assay [2] (0 days contact) was 4,540 CFU/mL. For the same substance, in assay [2] (1 day contact), the “Number of bacteria, D + 1” value is reported as 1,740 CFU/mL. In addition, the “Number of bacteria, D + 3” value in assay [2] (3 days contact) is 1,430 CFU/mL. The “Number of bacteria, D + 7” value in assay [2] (7 days contact) is listed as 290 CFU/mL. In addition, the “concentration showing growth-suppressing effect” value in assay [3] is on record as “about 1 ppb”. For the same substance, the “antibacterial activity against Porphyromonas gingivalis (in words)” value in assay [4] (Example 1, Table 1 and FIG. 1) was “did not show any antibacterial activity at all”. Besides, the “Number of bacteria, After contact” value in assay [4] (after contact for 1 minute at room temperature, nisin 150 μg/mL, Prunus mume extract 3 mg/mL (5-fold concentrate)) was 1.0 × 10^6 CFU/mL. Also, the “Number of bacteria, Before contact” value in assay [4] (before contact, nisin 150 μg/mL, Prunus mume extract 3 mg/mL (5-fold concentrate)) was 1.0 × 10^6 CFU/mL.
